Data from article doi:10.1101/2020.06.11.145995v1 (biorxiv, 2020).
Read-outs that look alike come from different tables or passages of the source. Each block holds one compound with its values, some of them ahead of it.

Legend:
Assay in all cases: biochemical
[1] = molecular target: MEK1 (Homo sapiens, UniProt Q02750)
[2] = molecular target: MELK (Homo sapiens, UniProt Q14680)
[3] = molecular target: CSF1R (Homo sapiens, UniProt P07333)
[4] = molecular target: AKT2 (Homo sapiens, UniProt P31751)
[5] = molecular target: ITK (Homo sapiens, UniProt Q08881)
[6] = molecular target: FLT3 (Homo sapiens, UniProt P36888)
[7] = molecular target: CDK2 (Homo sapiens, UniProt P24941)
[8] = molecular target: MLK3 (Homo sapiens, UniProt Q16584)
[9] = molecular target: BRSK2 (Homo sapiens, UniProt Q8IWQ3)
[10] = molecular target: MAP4K5 (Homo sapiens, UniProt Q9Y4K4)
[11] = molecular target: FLT1 (Homo sapiens, UniProt P17948)
[12] = molecular target: CDKL2 (Homo sapiens, UniProt Q92772)
[13] = molecular target: ASK1 (Homo sapiens, UniProt Q99683)
[14] = molecular target: CLK4 (Homo sapiens, UniProt Q9HAZ1)
[15] = molecular target: KIT(D816V) (Homo sapiens, UniProt P10721, D816V)
[16] = molecular target: MLCK (Homo sapiens, UniProt Q32MK0)
[17] = molecular target: DCAMKL2 (Homo sapiens, UniProt Q8N568)
[18] = molecular target: MAK (Homo sapiens, UniProt P20794)
[19] = molecular target: CDC2L5 (Homo sapiens, UniProt Q14004)
[20] = molecular target: LATS2 (Homo sapiens, UniProt Q9NRM7)
[21] = molecular target: FLT3(K663Q) (Homo sapiens, UniProt P36888, K663Q)
[22] = molecular target: CLK3 (Homo sapiens, UniProt P49761)
[23] = molecular target: FLT3(D835H) (Homo sapiens, UniProt P36888, D835H)
[24] = molecular target: AKT3 (Homo sapiens, UniProt Q9Y243)
[25] = molecular target: FGFR4 (Homo sapiens, UniProt P22455)
[26] = molecular target: MAPKAPK5 (Homo sapiens, UniProt Q8IW41)
[27] = molecular target: LCK (Homo sapiens, UniProt P06239)
[28] = molecular target: ADCK3 (Homo sapiens, UniProt Q8NI60)
[29] = molecular target: CSNK1G2 (Homo sapiens, UniProt P78368)
[30] = molecular target: MINK (Homo sapiens, UniProt Q8N4C8)
[31] = read-out: CPT-1-70-1 (1uM) % control
[32] = read-out: HYJ-2-002-1 (1uM) % control

Chain of MLCK (Q32MK0 whole entry): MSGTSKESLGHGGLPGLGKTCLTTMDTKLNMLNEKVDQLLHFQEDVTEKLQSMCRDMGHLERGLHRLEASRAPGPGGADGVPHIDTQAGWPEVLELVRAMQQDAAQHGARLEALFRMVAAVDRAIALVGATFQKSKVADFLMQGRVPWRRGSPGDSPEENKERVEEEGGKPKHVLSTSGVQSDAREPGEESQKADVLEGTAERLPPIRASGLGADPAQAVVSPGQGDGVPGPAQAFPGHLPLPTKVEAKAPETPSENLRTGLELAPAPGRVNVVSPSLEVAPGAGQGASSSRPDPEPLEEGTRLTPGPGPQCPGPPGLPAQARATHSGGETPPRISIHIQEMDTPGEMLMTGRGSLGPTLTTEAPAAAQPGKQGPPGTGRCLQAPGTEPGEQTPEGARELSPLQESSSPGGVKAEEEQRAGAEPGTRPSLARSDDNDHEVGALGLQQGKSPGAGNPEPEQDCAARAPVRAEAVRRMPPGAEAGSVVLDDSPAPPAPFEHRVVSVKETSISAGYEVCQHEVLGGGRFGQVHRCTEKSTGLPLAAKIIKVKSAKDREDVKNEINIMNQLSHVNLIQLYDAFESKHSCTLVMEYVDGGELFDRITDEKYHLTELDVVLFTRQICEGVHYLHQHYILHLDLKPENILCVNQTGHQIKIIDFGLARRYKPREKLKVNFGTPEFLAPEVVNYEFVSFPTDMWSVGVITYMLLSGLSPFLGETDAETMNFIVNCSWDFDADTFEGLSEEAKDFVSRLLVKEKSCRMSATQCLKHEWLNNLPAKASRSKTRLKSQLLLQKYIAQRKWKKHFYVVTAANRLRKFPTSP
Chain of CLK4 (Q9HAZ1 whole entry): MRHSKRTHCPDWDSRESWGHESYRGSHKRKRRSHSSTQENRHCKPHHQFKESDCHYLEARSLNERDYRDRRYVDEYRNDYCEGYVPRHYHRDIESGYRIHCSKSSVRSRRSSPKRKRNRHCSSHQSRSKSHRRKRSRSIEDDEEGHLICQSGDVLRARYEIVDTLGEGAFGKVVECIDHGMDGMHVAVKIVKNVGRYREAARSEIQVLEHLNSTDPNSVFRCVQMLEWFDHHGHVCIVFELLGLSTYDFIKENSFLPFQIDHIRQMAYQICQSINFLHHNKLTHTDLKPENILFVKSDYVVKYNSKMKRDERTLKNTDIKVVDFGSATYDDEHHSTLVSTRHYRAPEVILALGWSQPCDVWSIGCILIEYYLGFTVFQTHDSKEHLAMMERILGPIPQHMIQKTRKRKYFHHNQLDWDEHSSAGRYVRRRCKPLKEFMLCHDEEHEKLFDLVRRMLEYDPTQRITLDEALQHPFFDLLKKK
Chain of CSNK1G2 (P78368 whole entry): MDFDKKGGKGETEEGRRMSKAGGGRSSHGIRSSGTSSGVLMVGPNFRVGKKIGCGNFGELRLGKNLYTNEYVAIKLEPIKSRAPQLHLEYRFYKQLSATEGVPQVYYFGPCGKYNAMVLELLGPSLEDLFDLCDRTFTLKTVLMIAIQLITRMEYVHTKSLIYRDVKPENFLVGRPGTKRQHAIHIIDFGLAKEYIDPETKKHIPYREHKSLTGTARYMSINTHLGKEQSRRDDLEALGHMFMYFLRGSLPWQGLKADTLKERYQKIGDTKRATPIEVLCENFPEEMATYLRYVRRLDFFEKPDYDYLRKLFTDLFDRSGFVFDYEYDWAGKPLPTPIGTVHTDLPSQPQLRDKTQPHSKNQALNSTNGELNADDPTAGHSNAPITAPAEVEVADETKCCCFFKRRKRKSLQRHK
Chain of CLK3 (P49761 whole entry): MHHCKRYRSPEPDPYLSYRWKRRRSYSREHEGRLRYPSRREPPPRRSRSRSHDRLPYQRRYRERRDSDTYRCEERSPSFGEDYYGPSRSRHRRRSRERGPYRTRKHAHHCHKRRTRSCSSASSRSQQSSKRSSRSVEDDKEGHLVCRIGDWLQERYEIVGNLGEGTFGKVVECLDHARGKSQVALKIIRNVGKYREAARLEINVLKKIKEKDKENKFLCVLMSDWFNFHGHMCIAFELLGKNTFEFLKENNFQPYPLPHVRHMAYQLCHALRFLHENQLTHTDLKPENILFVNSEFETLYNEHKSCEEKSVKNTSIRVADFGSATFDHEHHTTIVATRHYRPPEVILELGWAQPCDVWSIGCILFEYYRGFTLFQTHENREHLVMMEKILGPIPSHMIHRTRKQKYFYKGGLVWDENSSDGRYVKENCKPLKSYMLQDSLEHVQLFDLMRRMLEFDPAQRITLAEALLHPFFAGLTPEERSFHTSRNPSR
Chain of LATS2 (Q9NRM7 whole entry): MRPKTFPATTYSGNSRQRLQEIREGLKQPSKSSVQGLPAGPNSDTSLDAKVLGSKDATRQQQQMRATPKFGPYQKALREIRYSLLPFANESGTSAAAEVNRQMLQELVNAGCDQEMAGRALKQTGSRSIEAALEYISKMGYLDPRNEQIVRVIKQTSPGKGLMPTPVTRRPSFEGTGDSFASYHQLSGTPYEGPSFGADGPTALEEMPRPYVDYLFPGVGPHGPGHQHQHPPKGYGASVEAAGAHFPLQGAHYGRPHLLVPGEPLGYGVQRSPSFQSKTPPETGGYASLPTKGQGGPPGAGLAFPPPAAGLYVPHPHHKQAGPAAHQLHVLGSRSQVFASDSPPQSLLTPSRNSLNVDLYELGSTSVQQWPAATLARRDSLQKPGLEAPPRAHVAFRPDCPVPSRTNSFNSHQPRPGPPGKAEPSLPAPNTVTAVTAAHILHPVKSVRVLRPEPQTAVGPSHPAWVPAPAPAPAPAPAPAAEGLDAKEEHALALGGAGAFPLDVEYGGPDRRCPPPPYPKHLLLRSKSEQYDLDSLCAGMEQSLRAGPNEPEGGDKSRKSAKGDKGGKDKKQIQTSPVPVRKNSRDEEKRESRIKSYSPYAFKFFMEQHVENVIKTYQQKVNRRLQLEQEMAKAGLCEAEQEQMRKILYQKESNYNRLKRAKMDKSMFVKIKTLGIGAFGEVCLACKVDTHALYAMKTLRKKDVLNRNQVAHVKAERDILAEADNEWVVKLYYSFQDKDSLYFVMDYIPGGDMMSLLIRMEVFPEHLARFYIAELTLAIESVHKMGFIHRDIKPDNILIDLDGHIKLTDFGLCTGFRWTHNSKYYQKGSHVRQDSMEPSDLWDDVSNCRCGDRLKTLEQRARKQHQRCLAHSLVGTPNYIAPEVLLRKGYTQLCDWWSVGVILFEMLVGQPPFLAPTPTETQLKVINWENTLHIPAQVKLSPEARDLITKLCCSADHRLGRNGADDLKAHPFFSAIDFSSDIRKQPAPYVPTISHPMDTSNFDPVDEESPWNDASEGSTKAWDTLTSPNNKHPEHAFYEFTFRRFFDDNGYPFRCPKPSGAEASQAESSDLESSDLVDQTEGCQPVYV
Chain of ASK1 (Q99683 whole entry): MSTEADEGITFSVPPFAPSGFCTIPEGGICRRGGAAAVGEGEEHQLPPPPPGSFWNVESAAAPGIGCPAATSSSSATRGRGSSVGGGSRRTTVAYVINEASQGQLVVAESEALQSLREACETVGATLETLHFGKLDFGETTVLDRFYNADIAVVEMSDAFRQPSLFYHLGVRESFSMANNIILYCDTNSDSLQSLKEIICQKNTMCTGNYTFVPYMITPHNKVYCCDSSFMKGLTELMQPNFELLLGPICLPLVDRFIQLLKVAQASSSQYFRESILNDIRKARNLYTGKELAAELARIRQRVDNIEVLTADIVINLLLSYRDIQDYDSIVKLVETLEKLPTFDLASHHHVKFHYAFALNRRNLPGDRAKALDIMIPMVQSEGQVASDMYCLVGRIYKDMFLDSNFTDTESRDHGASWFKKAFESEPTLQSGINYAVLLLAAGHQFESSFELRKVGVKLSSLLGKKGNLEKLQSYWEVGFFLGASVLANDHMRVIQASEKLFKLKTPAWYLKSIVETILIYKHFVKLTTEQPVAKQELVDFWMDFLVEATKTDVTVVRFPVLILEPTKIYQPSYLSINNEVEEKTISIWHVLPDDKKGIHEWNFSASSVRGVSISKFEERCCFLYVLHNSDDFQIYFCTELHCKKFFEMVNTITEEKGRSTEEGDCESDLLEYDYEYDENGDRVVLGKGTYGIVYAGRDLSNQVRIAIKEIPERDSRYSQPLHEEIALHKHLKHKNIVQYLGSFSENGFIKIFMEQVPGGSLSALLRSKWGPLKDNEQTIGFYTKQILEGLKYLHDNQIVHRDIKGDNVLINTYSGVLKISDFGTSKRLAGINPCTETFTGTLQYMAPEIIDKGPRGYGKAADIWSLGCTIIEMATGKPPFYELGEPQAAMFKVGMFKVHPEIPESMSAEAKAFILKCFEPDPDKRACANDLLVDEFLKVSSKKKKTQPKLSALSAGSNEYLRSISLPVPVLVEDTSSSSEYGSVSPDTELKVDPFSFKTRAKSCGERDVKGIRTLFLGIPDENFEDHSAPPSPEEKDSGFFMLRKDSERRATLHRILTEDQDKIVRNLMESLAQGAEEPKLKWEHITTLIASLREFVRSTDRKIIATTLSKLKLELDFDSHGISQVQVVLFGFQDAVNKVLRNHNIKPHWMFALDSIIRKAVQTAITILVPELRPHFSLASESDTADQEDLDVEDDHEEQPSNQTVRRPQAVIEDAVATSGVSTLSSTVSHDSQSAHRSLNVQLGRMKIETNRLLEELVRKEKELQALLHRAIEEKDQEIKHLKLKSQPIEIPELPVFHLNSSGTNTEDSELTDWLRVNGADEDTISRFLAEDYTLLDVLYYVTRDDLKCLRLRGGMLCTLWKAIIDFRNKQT
Chain of MEK1 (Q02750 whole entry): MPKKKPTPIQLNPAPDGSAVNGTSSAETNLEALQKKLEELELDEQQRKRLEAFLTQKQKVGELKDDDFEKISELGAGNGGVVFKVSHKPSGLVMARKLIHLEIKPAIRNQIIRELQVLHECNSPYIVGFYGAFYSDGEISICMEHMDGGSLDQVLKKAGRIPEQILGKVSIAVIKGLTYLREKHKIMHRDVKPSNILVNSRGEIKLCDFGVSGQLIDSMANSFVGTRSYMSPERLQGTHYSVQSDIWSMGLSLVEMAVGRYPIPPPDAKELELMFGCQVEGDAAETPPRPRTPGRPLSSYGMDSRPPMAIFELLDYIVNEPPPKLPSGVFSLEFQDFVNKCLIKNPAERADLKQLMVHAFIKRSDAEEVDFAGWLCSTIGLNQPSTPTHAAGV

Compound: CN1CCN(c2ccc(Nc3nc(Oc4ccc(NC(=O)CCl)cc4)c4cc[nH]c4n3)cc2)CC1 [CPT1-70-1]
remaining activity at 1 µM [1, 31]: 51%
remaining activity at 1 µM [2, 31]: 16%
remaining activity at 1 µM [3, 31]: 12%
remaining activity at 1 µM [4, 31]: 100%
remaining activity at 1 µM [5, 31]: 0.85%
remaining activity at 1 µM [6, 31]: 3%
remaining activity at 1 µM [7, 31]: 100%
remaining activity at 1 µM [8, 31]: 91%
remaining activity at 1 µM [9, 31]: 97%
remaining activity at 1 µM [10, 31]: 25%
remaining activity at 1 µM [11, 31]: 54%
remaining activity at 1 µM [12, 31]: 11%
remaining activity at 1 µM [13, 31]: 100%
remaining activity at 1 µM [14, 31]: 6.5%
remaining activity at 1 µM [15, 31]: 60%
remaining activity at 1 µM [16, 31]: 100%
remaining activity at 1 µM [17, 31]: 92%
remaining activity at 1 µM [18, 31]: 100%
remaining activity at 1 µM [19, 31]: 91%
remaining activity at 1 µM [20, 31]: 40%
remaining activity at 1 µM [21, 31]: 2.4%
remaining activity at 1 µM [22, 31]: 82%
remaining activity at 1 µM [23, 31]: 10%
remaining activity at 1 µM [24, 31]: 100%
remaining activity at 1 µM [25, 31]: 60%
remaining activity at 1 µM [26, 31]: 98%
remaining activity at 1 µM [27, 31]: 32%
remaining activity at 1 µM [28, 31]: 100%
remaining activity at 1 µM [29, 31]: 0.7%
remaining activity at 1 µM [30, 31]: 41%

remaining activity at 1 µM [1, 32]: 100%
remaining activity at 1 µM [2, 32]: 48%
remaining activity at 1 µM [3, 32]: 0.45%
remaining activity at 1 µM [4, 32]: 95%
remaining activity at 1 µM [5, 32]: 75%
remaining activity at 1 µM [6, 32]: 0.5%
remaining activity at 1 µM [7, 32]: 100%
remaining activity at 1 µM [8, 32]: 53%
remaining activity at 1 µM [9, 32]: 91%
remaining activity at 1 µM [10, 32]: 16%
remaining activity at 1 µM [11, 32]: 10%
remaining activity at 1 µM [12, 32]: 2.3%
remaining activity at 1 µM [13, 32]: 96%
remaining activity at 1 µM [14, 32]: 69%
remaining activity at 1 µM [15, 32]: 9.2%
remaining activity at 1 µM [16, 32]: 89%
remaining activity at 1 µM [17, 32]: 100%
remaining activity at 1 µM [18, 32]: 100%
remaining activity at 1 µM [19, 32]: 100%
remaining activity at 1 µM [20, 32]: 98%
remaining activity at 1 µM [21, 32]: 1.6%
remaining activity at 1 µM [22, 32]: 88%
remaining activity at 1 µM [23, 32]: 7.3%
remaining activity at 1 µM [24, 32]: 100%
remaining activity at 1 µM [25, 32]: 4.4%
remaining activity at 1 µM [26, 32]: 100%
remaining activity at 1 µM [27, 32]: 1.1%
remaining activity at 1 µM [28, 32]: 100%
remaining activity at 1 µM [29, 32]: 45%
remaining activity at 1 µM [30, 32]: 33%
Compound: CCN1CCN(Cc2ccc(NC(=O)c3ccc(C)c(CCc4cnc5[nH]ccc5c4OC)c3)cc2C(F)(F)F)CC1 [HYJ-2-002-1]
